Reference: PMC10687071 (The Journal of Biological Chemistry, 2023)
Substitutions are numbered along the chain they refer to.

Key:
[1] = biological target: T1, WT EAG1 channels (Mus musculus, UniProt Q60603); assay: TEVC recording of EAG1 currents in Xenopus oocytes, imipramine inhibition, WT channel; type: cell-based; settings: IC50 for imipramine inhibition at +50 mV
T1 construct: expressed in transfected cells; host or cells: Xenopus laevis oocytes injected with cRNA
T1 sequence (Q60603 1-989): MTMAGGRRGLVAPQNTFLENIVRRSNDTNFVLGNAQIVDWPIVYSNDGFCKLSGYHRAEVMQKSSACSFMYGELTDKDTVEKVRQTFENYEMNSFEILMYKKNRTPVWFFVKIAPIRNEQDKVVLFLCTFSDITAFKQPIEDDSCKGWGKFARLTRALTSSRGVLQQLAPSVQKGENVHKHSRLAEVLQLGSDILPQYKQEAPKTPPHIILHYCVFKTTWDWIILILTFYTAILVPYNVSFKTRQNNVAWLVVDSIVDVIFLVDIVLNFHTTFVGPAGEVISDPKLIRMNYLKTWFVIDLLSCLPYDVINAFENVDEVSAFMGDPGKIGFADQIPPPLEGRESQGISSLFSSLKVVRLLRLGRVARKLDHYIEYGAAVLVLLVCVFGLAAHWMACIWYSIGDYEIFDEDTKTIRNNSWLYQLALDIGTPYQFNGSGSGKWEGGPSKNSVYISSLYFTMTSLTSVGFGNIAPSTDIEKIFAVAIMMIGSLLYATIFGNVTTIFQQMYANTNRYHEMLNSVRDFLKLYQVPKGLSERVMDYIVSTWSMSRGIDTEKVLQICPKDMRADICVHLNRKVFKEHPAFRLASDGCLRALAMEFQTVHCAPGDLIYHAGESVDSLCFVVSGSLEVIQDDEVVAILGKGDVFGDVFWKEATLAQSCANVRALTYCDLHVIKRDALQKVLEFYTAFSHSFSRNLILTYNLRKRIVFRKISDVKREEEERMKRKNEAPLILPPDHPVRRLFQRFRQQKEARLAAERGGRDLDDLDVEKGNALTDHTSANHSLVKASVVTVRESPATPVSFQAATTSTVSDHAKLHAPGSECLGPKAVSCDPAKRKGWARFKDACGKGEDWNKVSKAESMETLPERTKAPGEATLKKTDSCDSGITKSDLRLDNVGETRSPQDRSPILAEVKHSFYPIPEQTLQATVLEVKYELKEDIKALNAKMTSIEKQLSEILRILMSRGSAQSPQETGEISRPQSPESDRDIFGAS
From the text: (§1) The cDNA encoding wild-type (WT) mouse EAG1 channels in pGH19 vector was kindly provided by G. Robertson (University of Wisconsin-Madison, Madison, WI). The mutant ΔPAS EAG1 channel in pGH19 with the deletion of the PAS domain residues 2 to 130 was generated by Bio Basic Inc and verified by DNA sequencing (Genewiz). Mutant EAG1 channels with single amino acid substitutions were generated by Genewiz and verified by DNA sequencing. cRNA was transcribed using the T7 mMessage mMachine kit (Thermo Fisher Scientific). Defolliculated Xenopus laevis oocytes were purchased from Ecocyte Bioscience or Xenopus1 and injected with the cRNA using a Nanoinject II oocyte injector (Drummond).
(§2) For EAG1 current recordings, oocytes were placed into a handmade chamber containing a bath solution for the current recording. The currents were recorded using a TEVC technique with OC-725C amplifier (Warner Instruments) and pClamp11 software (Molecular Devices). The signals were digitized using Digidata 1550 (Molecular Devices). Patch pipettes were pulled from borosilicate glass and had resistances of 0.7 to 1.5 MΩ. The recording (bath) solution contained 96 mM NaCl, 4 mM KCl, 0.1 mM CaCl2, 1.8 mM MgCl2, and 5 mM HEPES, pH 7.5. The pipette solution contained 3 M KCl. […]

[2] = biological target: T2, Y71E mutant EAG1 channels (Mus musculus, UniProt Q60603, Y71E); assay: TEVC recording, imipramine inhibition, Y71E mutant; type: cell-based; settings: Y71E mutant EAG1 channel, +50 mV
T2 construct: expressed in transfected cells; host or cells: Xenopus laevis oocytes injected with cRNA
T2 sequence (Q60603 1-989 Y71E): T1 sequence (Q60603 1-989) with Y71E
From the text: as §1, §2

IC50 [1]: 58.1 ± 9.7 µM
IC50 [2]: 28.5 ± 1.4 µM
SMILES: CN(C)CCCN1c2ccccc2CCc2ccccc21 [imipramine]
